Experimental data taken from the supplement of paper PMC10307832.

compound: CC1=CC(=C(N1C2=CC=C(C=C2)Cl)C)C(=O)CN3CCCCC3 [IU1-47] + Cc1cc(Nc2cc(N3CCN(C)CC3)nc(Sc3ccc(NC(=O)C4CC4)cc3)n2)n[nH]1 [Tozasertib] (partner 0.1 µM); test: relative viability (nuclei count vs DMSO), 5 days (fraction); higher = more cells survive; details: first compound 8 µM
Method in brief: (§1)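 After 5 days of treatment, lung cancer cells in 1536-well plates were fixed and stained in a single step (final 0.05% Triton X-100, 1% formaldehyde, 1 ug/ml Hoechst) and their nuclei counted on 4× images. Treatment had been applied by pin tool the day after seeding as one drug alone or as a fixed anchor-drug dose with five library-drug doses (not always all listed) in √10 steps. Relative viability is the nuclei count of treated wells divided by that of vehicle wells, and values are medians of duplicate plates.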

| Cell Line | relative viability |
| --- | --- |
| SW 900 | 0.469 |
| NCI-H1648 | 0.43 |
| NCI-H2009 | 0.662 |
| NCI-H661 | 0.375 |
| SK-LU-1 | 0.292 |
| NCI-H2228 | 0.249 |
| NCI-H2023 | 0.291 |

compound: CC1=CC(=C(N1C2=CC=C(C=C2)Cl)C)C(=O)CN3CCCCC3 [IU1-47] + COc1cc2c(Oc3ccc(NC(=O)C4(C(=O)Nc5ccc(F)cc5)CC4)cc3F)ccnc2cc1OCCCN1CCOCC1 [Foretinib] (partner 0.25 µM); test: as above; details: first compound 0.08 µM
Method in brief: as §1

| Cell Line | relative viability |
| --- | --- |
| NCI-H1623 | 1.05 |
| NCI-H727 | 1.05 |
| NCI-H1650 | 1.05 |
| EBC-1 | 0.0995 |
| NCI-H1703 | 0.342 |
| NCI-H1993 | 0.84 |
| SW 1573 | 1.03 |
| NCI-H838 | 1.12 |
| LCLC-103H | 0.786 |
| NCI-H520 | 0.785 |
| NCI-H2126 | 1.28 |
| EMC-BAC-2 | 1.07 |
| NCI-H2085 | 0.922 |
| Calu-6 | 1 |
| HCC-366 | 0.872 |
| NCI-H1666 | 1.04 |
| NCI-H596 | 0.893 |
| LK-2 | 1.8 |
| NCI-H2087 | 1.26 |

| Cell Line | relative viability |
| --- | --- |
| NCI-H2342 | 1.24 |
| SK-MES-1 | 0.999 |
| H3255 | 0.858 |
| COR-L23 | 1.14 |
| COR-L 105 | 0.907 |
| IA-LM | 1.02 |
| LOU-NH91 | 0.988 |
| ChaGo-K-1 | 0.967 |
| NCI-H2170 | 1.14 |
| A549 | 0.9 |
| SW 900 | 1.24 |
| NCI-H2009 | 1.24 |
| NCI-H661 | 1.14 |
| SK-LU-1 | 0.855 |
| NCI-H1299 | 1.1 |
| NCI-H2228 | 1.14 |
| NCI-H2023 | 0.75 |
| NCI-H1563 | 0.855 |

same assay, conditions: first compound 0.253 µM

| Cell Line | relative viability |
| --- | --- |
| NCI-H1623 | 0.903 |
| NCI-H727 | 0.988 |
| NCI-H1650 | 1.17 |
| EBC-1 | 0.107 |
| NCI-H1703 | 0.315 |
| NCI-H1993 | 0.76 |
| SW 1573 | 0.965 |
| NCI-H838 | 1.07 |
| LCLC-103H | 0.864 |
| NCI-H520 | 0.866 |
| NCI-H2126 | 1.17 |
| EMC-BAC-2 | 1.11 |
| NCI-H2085 | 1.19 |
| Calu-6 | 1.01 |
| HCC-366 | 0.92 |
| NCI-H1666 | 0.928 |
| NCI-H596 | 0.82 |
| LK-2 | 1.82 |
| NCI-H2087 | 1.14 |

| Cell Line | relative viability |
| --- | --- |
| NCI-H2342 | 1.06 |
| SK-MES-1 | 1.05 |
| H3255 | 0.958 |
| COR-L23 | 1.09 |
| COR-L 105 | 1.14 |
| IA-LM | 1.12 |
| LOU-NH91 | 1 |
| ChaGo-K-1 | 0.934 |
| NCI-H2170 | 1.08 |
| A549 | 1.09 |
| SW 900 | 0.849 |
| NCI-H2009 | 1.25 |
| NCI-H661 | 1.16 |
| SK-LU-1 | 0.752 |
| NCI-H1299 | 1.11 |
| NCI-H2228 | 1.05 |
| NCI-H2023 | 0.722 |
| NCI-H1563 | 0.988 |

same assay, conditions: first compound 0.8 µM

| Cell Line | relative viability |
| --- | --- |
| NCI-H1623 | 0.892 |
| NCI-H727 | 0.871 |
| NCI-H1650 | 1.1 |
| EBC-1 | 0.0951 |
| NCI-H1703 | 0.278 |
| NCI-H1993 | 0.735 |
| SW 1573 | 1.11 |
| NCI-H838 | 0.981 |
| LCLC-103H | 0.846 |
| NCI-H520 | 0.698 |
| NCI-H2126 | 1.22 |
| EMC-BAC-2 | 0.984 |
| NCI-H2085 | 0.926 |
| Calu-6 | 0.934 |
| HCC-366 | 1 |
| NCI-H1666 | 0.893 |
| NCI-H596 | 0.806 |
| LK-2 | 1.78 |
| NCI-H2087 | 1.31 |

| Cell Line | relative viability |
| --- | --- |
| NCI-H2342 | 0.935 |
| SK-MES-1 | 0.838 |
| H3255 | 1.44 |
| COR-L23 | 1.08 |
| COR-L 105 | 1.22 |
| IA-LM | 0.936 |
| LOU-NH91 | 0.903 |
| ChaGo-K-1 | 0.954 |
| NCI-H2170 | 1.03 |
| A549 | 0.983 |
| SW 900 | 0.852 |
| NCI-H2009 | 1.18 |
| NCI-H661 | 1.07 |
| SK-LU-1 | 0.879 |
| NCI-H1299 | 1.09 |
| NCI-H2228 | 0.975 |
| NCI-H2023 | 1 |
| NCI-H1563 | 0.967 |

same assay, conditions: first compound 2.53 µM

| Cell Line | relative viability |
| --- | --- |
| NCI-H1623 | 0.841 |
| NCI-H727 | 1.02 |
| NCI-H1650 | 1.4 |
| EBC-1 | 0.111 |
| NCI-H1703 | 0.377 |
| NCI-H1993 | 0.843 |
| SW 1573 | 0.749 |
| NCI-H838 | 1.06 |
| LCLC-103H | 0.73 |
| NCI-H520 | 1.15 |
| NCI-H2126 | 0.723 |
| EMC-BAC-2 | 1.02 |
| NCI-H2085 | 0.922 |
| Calu-6 | 0.917 |
| HCC-366 | 0.966 |
| NCI-H1666 | 0.948 |
| NCI-H596 | 0.87 |
| LK-2 | 0.89 |

| Cell Line | relative viability |
| --- | --- |
| NCI-H2342 | 1.07 |
| SK-MES-1 | 0.844 |
| H3255 | 0.368 |
| COR-L23 | 1.02 |
| COR-L 105 | 1.2 |
| IA-LM | 1.17 |
| LOU-NH91 | 0.891 |
| ChaGo-K-1 | 0.979 |
| NCI-H2170 | 0.994 |
| A549 | 1.08 |
| SW 900 | 1.18 |
| NCI-H2009 | 1.22 |
| NCI-H661 | 0.93 |
| SK-LU-1 | 0.852 |
| NCI-H1299 | 1.18 |
| NCI-H2228 | 0.827 |
| NCI-H1563 | 0.886 |

same assay, conditions: first compound 8 µM

| Cell Line | relative viability |
| --- | --- |
| NCI-H1623 | 0.833 |
| NCI-H727 | 0.987 |
| NCI-H1650 | 0.886 |
